Measured values: patent US20100120700A1, “METHODS AND COMPOSITIONS FOR TREATING CERVICAL CANCER” (priority 2000, published 2010)
pEC50: −log10 of the molar value. Entries after “also recorded” stand apart in the source; their conditions may differ.

Tests used:
[1] = tested on: c-JUN N-terminal kinase (JNK); test: Jun kinase assay in microinjected Xenopus oocytes; type: cell-based
Description: Experimental Design: This experiment was divided into two phases. In the first phase, an MBP-E6 fusion protein (HPV16; see example 4) was microinjected into Xenopus oocytes at different concetrations and then the oocytes were assayed for INK activity. In the second phase, peptides corresponding to the C-termini of non-oncogenic E6 protein (HPV11), HPV16 E6 (oncogenic) or Tax (shown to block oncogenic E6 binding to PDZ domains, FIG. 3) were co-injected with an activating amount of MBP-E6 fusion protein to assess ther abilities to block JNK activation.
Isolation and Microinjection of Oocytes—Xenopus ovarian tissue was surgically removed, and oocytes were defolliculated for 1-1.5 h at room temperature with 2 mg/ml collagenase and 0.5 mg/ml polyvinylpyrrolidone in Ca21-free modified Barth's solution (88 mM NaCl, 1 mM KCl, 0.82 mM MgSO4, 2.4 mM NaHCO3, 10 mM HEPES, pH 7.5). The oocytes were then washed four times with modified Barth's solution. Stage VI oocytes were sorted manually and incubated at 16° C. for at least 10 h in OR2 solution (82.5 mM NaCl, 2.5 mM KCl, 1 mM CaCl2, 1 mM Na2HPO4, 5 mM HEPES, pH 7.5) supplemented with 1 mg/ml bovine serum albumin and […] gentamicin. Immature oocytes were microinjected with purified MBP-E6 protein or E6 protein and peptide and transferred to fresh OR2 for the duration of the time course. Five oocytes were collected per time point, frozen on dry ice, and stored at −80° C.
Lysis of Oocytes, Eggs, and Embryos—Frozen oocytes, eggs, and embryos were thawed rapidly and lysed by pipetting up and down in 60 ml of ice-cold extraction buffer (EB) (0.25 M sucrose, 0.1 M NaCl, 2.5 mM MgCl2, 20 mM HEPES, pH 7.2) containing 10 mM EDTA, protease inhibitors (10 mg/ml leupeptin, 10 mg/ml pepstatin, 10 mg/ml aprotinin, 1 mM phenylmethylsulfonyl fluoride), and phosphatase inhibitors (50 mM 2-glycerophosphate, 1 mM sodium orthovanadate, 2 mM microcystin). Samples were clarified by centrifugation for 2.5 min in a Beckman E microcentrifuge with a right angle rotor. Crude cytoplasm was collected and processed for immunoblotting or kinase assays, as described below.
Jun Kinase Assay—Jun kinase assays were performed as described. Crude oocyte, egg, or embryo cytoplasm was diluted 1:1 in EB and pre-cleared with 20 ml of glutathione-Sepharose beads (Amersham Pharmacia Biotech) for 1 h at 4° C. with moderate shaking. Lysates were incubated with glutathione S-transferase GST-c-Jun-(1-79) fusion protein (hereafter denoted GST-Jun) immobilized on glutathione- Sepharose beads. After 3 h at 4° C., the beads were washed three times with 50 mM HEPES, pH 7.5, 150 mM NaCl, 1% Triton X-100, 1 mM EDTA, 10% glycerol, 10 mM sodium pyrophosphate, 2 mM sodium orthovanadate, 10 mM sodium fluoride, 1 mM phenylmethylsulfonyl fluoride, and 10 mg/ml aprotinin (24) and once with 0.4 ml of kinase buffer (20 mM HEPES, pH 7.5, 10 mM MgCl2, 1 mM dithiothreitol, 200 mM sodium orthovanadate). The bound JNK activity was detected by the addition of 1 mCi of [g-32]JATP. The reaction was terminated after 20 min at 30° C., and the products were resolved by SDS-PAGE. The gels were transferred to PVDF membranes (Hybond; Amersham Pharmacia Biotech) and the incorporation of [32P]phosphate into GST-Jun was visualized by autoradiography. […]

[2] = biological target: T1, TIP1 (Homo sapiens, UniProt O14907); test: G assay peptide titration (EC50); type: binding; conditions: E6 peptide titrated against constant GST-PDZ
T1 construct: made in house; host or cells: E. coli (DH5alpha, BL21 or JM109)
T1 sequence (O14907 14-116): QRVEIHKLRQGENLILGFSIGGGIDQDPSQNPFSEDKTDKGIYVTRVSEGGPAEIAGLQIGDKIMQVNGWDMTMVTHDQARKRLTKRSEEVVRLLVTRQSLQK

[3] = biological target: SIP1 (PDZ1) (Homo sapiens, UniProt Q15599); conditions: E6 peptide titrated against constant GST-PDZ; SIP1 (1)
Sequence of SIP1 (PDZ1) (Q15599 with tags, fused parts or gaps): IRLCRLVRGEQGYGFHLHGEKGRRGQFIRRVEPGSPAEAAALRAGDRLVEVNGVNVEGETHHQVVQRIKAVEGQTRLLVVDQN
Description: (§1) (1) A GST/PDZ fusion protein, as well as GST alone as a negative control, are bound to a surface (e.g., a 96-well plate) and the surface blocked and washed as described supra for the “G” assay.
(§2) (2) 50 uL per well of a solution of biotinylated PL peptide (e.g. as shown in TABLE 2) is added to the surface in increasing concentrations in PBS/BSA (e.g. at 0.1 uM, 0.33 uM, 1 uM, 3.3 uM, 10 uM, 33 uM, and 100 uM). In one embodiment, the PL peptide is allowed to react with the bound GST/PDZ fusion protein (as well as the GST alone negative control) for 10 minutes at 4° C. followed by 20 minutes at 25° C. The plate is washed 3 times with ice cold PBS to remove unbound labeled peptide.
(§3) (3) The binding of the PL peptide to the immobilized PDZ-domain polypeptide is detected as described supra for the “G” assay.
(§4) (4) For each concentration of peptide, the net binding signal is determined by subtracting the binding of the peptide to GST alone from the binding of the peptide to the GST/PDZ fusion protein. The net binding signal is then plotted as a function of ligand concentration and the plot is fit (e.g. by using the Kaleidagraph software package curve fitting algorithm; Synergy Software) to the following equation, where “Signal[ligand]” is the net binding signal at PL peptide concentration “[ligand],” “Kd” is the apparent affinity of the binding event, and “Saturation Binding” is a constant determined by the curve fitting algorithm to optimize the fit to the experimental data: […]

[4] = tested on: SAST1 KIAA; conditions: E6 peptide titrated against constant GST-PDZ
Description: as §1, §2, §3, §4

[5] = biological target: DLG2 (PDZ3) (Homo sapiens, UniProt Q15700); conditions: E6 peptide titrated against constant GST-PDZ; DLG2 (3)
Description: as §1, §2, §3, §4

[6] = biological target: Magi1C (PDZ2) (Homo sapiens, UniProt Q96QZ7); conditions: E6 peptide titrated against constant GST-PDZ; Table 10 prints Magi1C (1)
Sequence of Magi1C (PDZ2) (Q96QZ7 463-566): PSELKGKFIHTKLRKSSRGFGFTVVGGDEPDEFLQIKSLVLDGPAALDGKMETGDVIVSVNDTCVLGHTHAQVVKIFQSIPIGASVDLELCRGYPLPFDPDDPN
Description: as §1, §2, §3, §4

[7] = tested on: SAST2; conditions: E6 peptide titrated against constant GST-PDZ; SAST2 (1)
Description: as §1, §2, §3, §4

Q: How did the “inhibition of HPV16 E6-dependent JNK activation by co-injected peptide” value [1] turn out when “20 mer peptide corresponding to the C-terminus of HPV16 E6 (PDZ ligand), biotinylated in binding assays; ends SSRTRRETQL (SEQ ID NO: 13) [HPV E6 #16]” was run?
A: Its value is “can be inhibited by peptide representing HPV E6 16 oncoprotein; also recorded: can be inhibited by peptide representing the c-terminus of the HPV16 E6 oncoprotein; also recorded: blocked E6-dependent INK activation”.

Q: What about the pEC50 [2] of the same substance?
A: The pEC50 was 6.12.

Q: And the pEC50 [3]?
A: The pEC50 was 5.12.

Q: And the pEC50 [4]?
A: The pEC50 was 6.24.

Q: What about the pEC50 [5] of the same substance?
A: The pEC50 was 5.80.

Q: And the pEC50 [6]?
A: Its pEC50 is 7.25.

Q: What about the pEC50 [7] of the same substance?
A: The pEC50 was 5.92.
